We go through 17 molecules from patent US20090163586A1, “Bis-(Sulfonylamino) Derivatives in Therapy 205” (AstraZeneca AB, priority 2007, published 2009).

This assay concerns the target T1, human mPGES-1 (Homo sapiens, UniProt O14684).
T1 sequence (O14684 1-152): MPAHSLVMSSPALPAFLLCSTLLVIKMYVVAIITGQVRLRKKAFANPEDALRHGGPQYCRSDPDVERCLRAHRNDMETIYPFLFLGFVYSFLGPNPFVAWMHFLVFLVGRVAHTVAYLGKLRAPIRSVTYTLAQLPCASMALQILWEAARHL
Put plainly: Microsomal prostaglandin E synthase biochemical assay. Conditions: microsome preparation containing human mPGES-1; PGH2 10.8 μM, GSH 2.5 mM, pH 6.8; PGE2 by HTRF; average of at least n=2. The method, boiled down: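 Human mPGES-1 microsomes at 2 μg/mL were pre-incubated 15 min with compound (60 μM to 0.002 μM) in 50 mM potassium phosphate pH 6.8 with 2.5 mM GSH. The reaction was started with 10.8 μM PGH2 and stopped after 1 minute with acidic ferric chloride/citrate. PGE2 was quantified by HTRF; IC50 is the mean of at least 2 runs.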
(In TR-FRET formats the signal depends on donor and acceptor labels being close together.)

pIC50: −log10 of the molar value.

One may read the pIC50 as the IC50 on a negative log10 scale, so that one unit is a factor of ten. The low end stands for a high IC50, the high end for a low IC50. In turn, `CC(C)(C)C#Cc1ccc(CCS(=O)(=O)Nc2ccccc2S(N)(=O)=O)cc1` [Example 183, 2-(2-(4-(3,3-dimethylbut-1-ynyl)phenyl)ethylsulfonamido)benzenesulfonamide] showed a pIC50 of 7.09. `CC(C)(O)C#Cc1ccc(CCS(=O)(=O)Nc2ccccc2S(N)(=O)=O)cc1` [Example 184, 2-(2-(4-(3-Hydroxy-3-methylbut-1-ynyl)phenyl)ethylsulfonamido)benzenesulfonamide]: the pIC50 is 5.02. Against the preceding molecule, the pIC50 is 2.07 log units lower. `CC(C)(C)C#Cc1cccc(S(=O)(=O)Nc2ccccc2S(N)(=O)=O)c1` [Example 185, 3-(3,3-Dimethylbut-1-ynyl)-N-(2-sulfamoylphenyl)benzenesulfonamide] had a pIC50 of 5.60. In turn, `COc1cc(Cl)ccc1CCS(=O)(=O)Nc1ccccc1S(N)(=O)=O` [Example 186, 2-(2-(4-Chloro-2-methoxyphenyl)ethylsulfonamido)benzenesulfonamide] had a pIC50 of 6.60. The molecule `CC(C)(C)C#Cc1ccc(CCS(=O)(=O)Nc2ccccc2S(N)(=O)=O)cn1` [Example 187, 2-(2-(6-(3,3-Dimethylbut-1-ynyl)pyridin-3-yl)ethylsulfonamido)benzenesulfonamide] gave a pIC50 of 6.17.

Consider `NS(=O)(=O)c1ccccc1NS(=O)(=O)CCc1ccc(C#CC2CCCCC2)nc1` [Example 188, 2-(2-(6-(cyclohexylethynyl)pyridin-3-yl)ethylsulfonamido)benzenesulfonamide], for which the pIC50 is 6.57. With `Cc1ccc(NS(=O)(=O)CCc2ccc(Br)cc2)c(S(N)(=O)=O)c1` [Example 189, 2-(2-(4-Bromophenyl)ethylsulfonamido)-5-methylbenzenesulfonamide], the pIC50 was 5.85. Turning to `Cc1ccc(NS(=O)(=O)/C=C/c2ccc(Br)cc2)c(S(N)(=O)=O)c1` [Example 190, (E)-2-(2-(4-Bromophenyl)vinylsulfonamido)-5-methylbenzenesulfonamide], the pIC50 was 6.17. On to `Cc1nc(-c2cccc(S(=O)(=O)Nc3ccccc3S(N)(=O)=O)c2)cs1` [Example 191, 3-(2-Methylthiazol-4-yl)-N-(2-sulfamoylphenyl)benzenesulfonamide], for which the pIC50 was 5.08.

`NS(=O)(=O)c1ccccc1NS(=O)(=O)/C=C/c1cccc(C(F)(F)F)c1` [Example 192, (E)-2-(2-(3-(Trifluoromethyl)phenyl)vinylsulfonamido)benzenesulfonamide] gave a negative-log IC50 (pIC50) of 5.49.

Take `NS(=O)(=O)c1ccccc1NS(=O)(=O)/C=C/c1ccccc1F` [Example 193, (E)-2-(2-(2-Fluorophenyl)vinylsulfonamido)benzenesulfonamide]: the pIC50 was 5.10. Regarding `COc1cc(Cl)ccc1CCS(=O)(=O)Nc1ccc(Cl)cc1S(N)(=O)=O` [Example 194, 5-Chloro-2-(2-(4-chloro-2-methoxyphenyl)ethylsulfonamido)benzenesulfonamide], the pIC50 is 6.00. As for `NS(=O)(=O)c1cc(Cl)ccc1NS(=O)(=O)c1cccc(Cl)c1Cl` [Example 195, 2,3-Dichloro-N-(4-chloro-2-sulfamoylphenyl)benzenesulfonamide], the figure is 5.26; as for `NS(=O)(=O)c1c(F)cc(F)cc1NS(=O)(=O)c1cccc(Cl)c1Cl` [Example 196, 2,3-Dichloro-N-(3,5-difluoro-2-sulfamoylphenyl)benzenesulfonamide], 5.72; as for `NS(=O)(=O)c1c(F)cc(F)cc1NS(=O)(=O)CCc1ccc(Cl)c(Cl)c1` [Example 197, 2-(2-(3,4-Dichlorophenyl)ethylsulfonamido)-4,6-difluorobenzenesulfonamide], 6.19. Take `COc1cc(Cl)ccc1CCS(=O)(=O)Nc1cc(F)cc(F)c1S(N)(=O)=O` [Example 198, 2-(2-(4-Chloro-2-methoxyphenyl)ethylsulfonamido)-4,6-difluorobenzenesulfonamide]: the pIC50 was 6.54. In turn, `N#Cc1ccc(NS(=O)(=O)CCc2ccc(Cl)c(Cl)c2)c(S(N)(=O)=O)c1` [Example 199, 5-Cyano-2-(2-(3,4-dichlorophenyl)ethylsulfonamido)benzenesulfonamide] gave a pIC50 of 5.60.
